Test results: patent publication US20090285887A1, “Pharmaceutical Composition Comprising A Plurality of Mini-Tablets Comprising A Factor XA Inhibitor” (priority 2006, published 2009)

Test: Preliminary pharmacokinetic analysis of absorption throughout the GI tract
Assay type: in vivo
Source text: In one aspect of the invention, the pharmaceutical composition enables the Factor Xa inhibitor to be absorbed throughout the GI tract, i.e. in the duodenum (proximal small intestine), ileum (distal small intestine) and cecum/colon. […] Accordingly, this comprises a further aspect of the invention.

- absorption throughout the GI tract: may be absorbed throughout the GI tract
Structure (SMILES): C[C@@H](C(=O)N1CCOCC1)N1CC[C@H](NS(=O)(=O)/C=C/c2ccc(Cl)s2)C1=O [Compound A, (E)-2-(5-chlorothien-2-yl)-N-{(3S)-1-[(1S)-1-methyl-2-morpholin-4-yl-2-oxoethyl]-2-oxopyrrolidin-3-yl}ethenesulfonamide]
